Assay results reported in ChEMBL document CHEMBL4138088, “Novel 1-(7-ethoxy-1-benzofuran-2-yl) substituted chalcone derivatives: Synthesis, characterization and anticancer activity” (Eur J Med Chem, 2017).
The source made the active and inactive calls. No cut-off for these calls is given here.

What was measured:
Format in all cases: functional, cell-based
HCT-116 [1] = test: Antiproliferative activity against human HCT116 cells after 48 hrs by MTT assay; settings: HCT-116, 48 h
HCT-116 [2] = test: Antiproliferative activity against human HCT116 cells after 12 hrs by MTT assay; settings: HCT-116, 12 h
HCT-116 [3] = test: Antiproliferative activity against human HCT116 cells after 24 hrs by MTT assay; settings: HCT-116, 24 h
HCT-116 [4] = test: Antiproliferative activity against human HCT116 cells after 6 hrs by MTT assay; settings: HCT-116, 6 h
MCF7 [5] = test: Growth inhibition of human MCF7 cells at 20 uM after 72 hrs by ATP bioluminescence assay
MCF7 [6] = test: Growth inhibition of human MCF7 cells at 20 uM after 72 hrs by SRB assay

| SMILES | IC50 (HCT-116 [1]) [µM] | IC50 (HCT-116 [2]) [µM] | IC50 (HCT-116 [3]) [µM] | IC50 (HCT-116 [4]) [µM] | growth inhibition (GI) (MCF7 [5]) | growth inhibition (GI) (MCF7 [6]) |
| --- | --- | --- | --- | --- | --- | --- |
| COc1cc(/C=C/C(=O)c2cccc(-n3c(C)nc4ccccc4c3=O)c2)ccc1O | 16 | 140 | 26 | 600 |  |  |
| CCOc1cccc2cc(C(=O)/C=C/c3cccs3)oc12 |  |  |  |  | Active | Active |
| CCOc1cccc2cc(C(=O)/C=C/c3ccc[nH]3)oc12 |  |  |  |  | Active | Active |
| CCOc1cccc2cc(C(=O)/C=C/c3ccc(C)cc3)oc12 |  |  |  |  | Active | Active |
| CCOc1cccc2cc(C(=O)/C=C/c3ccc(OC)cc3)oc12 |  |  |  |  | Active | Active |
